Experiments:
in vivo [1] = details: Wistar-Han, rat
[2] = Mouse C57BL/6; Dose IV: 1 mg/kg PO: 10 mg/kg
in vivo [3] = details: C57BL/6, mouse
[4] = Rat Wistar-Han; Dose 0.3 mg/kg PO: 3 mg/kg

AUC (in vivo [1]; iv, 0.3 mg/kg): 0.38 µM·h
AUC (in vivo [1]; po, 3 mg/kg): 2.77 µM·h
Cmax (in vivo [1]; po, 3 mg/kg): 756 nM
Tmax (in vivo [1]; po, 3 mg/kg): 1.5 h
Oral BA (% F) [2]: 6 % F
half-life (in vivo [3]): 30 min
Vd (in vivo [3]; intravenous, 1 mg/kg): 0.4 L/kg
clearance (in vivo [3]; intravenous, 1 mg/kg): 14 mL/min/kg
Cmax (in vivo [3]; po, 10 mg/kg): 946 nM
Tmax (in vivo [3]; po, 10 mg/kg): 18 min
Vss [4]: 1.1 L/kg
SMILES: Nc1ncc(-c2ncccc2OC(F)(F)F)nc1C(=O)Nc1ncccc1N1CCC(N)CC1 [Example 2, 3-amino-N-(3-(4-aminopiperidin-1-yl)pyridin-2-yl)-6-(3-(trifluoromethoxy)pyridin-2-yl)pyrazine-2-carboxamide]
